# From US6121512A, “Cytochrome P-450 constructs and method of producing herbicide-resistant transgenic plants” (North Carolina State University, priority 1997, dated 2000)
# Key:
# soybean CYP71A10 = target: T1, soybean CYP71A10 (Glycine max, UniProt O48918); assay: In vitro herbicide metabolism assay and enzyme kinetics, microsomes of yeast expressing CYP71A10; assay type: biochemical; settings: for metabolites formed from the radiolabeled herbicide (TLC): 45 minutes at 27° C., 0.75 mM NADPH, 2.5 mg/ml microsomal protein
# T1 construct: microsomes of yeast W(R) overexpressing endogenous P450 reductase
# T1 sequence (O48918 1-513): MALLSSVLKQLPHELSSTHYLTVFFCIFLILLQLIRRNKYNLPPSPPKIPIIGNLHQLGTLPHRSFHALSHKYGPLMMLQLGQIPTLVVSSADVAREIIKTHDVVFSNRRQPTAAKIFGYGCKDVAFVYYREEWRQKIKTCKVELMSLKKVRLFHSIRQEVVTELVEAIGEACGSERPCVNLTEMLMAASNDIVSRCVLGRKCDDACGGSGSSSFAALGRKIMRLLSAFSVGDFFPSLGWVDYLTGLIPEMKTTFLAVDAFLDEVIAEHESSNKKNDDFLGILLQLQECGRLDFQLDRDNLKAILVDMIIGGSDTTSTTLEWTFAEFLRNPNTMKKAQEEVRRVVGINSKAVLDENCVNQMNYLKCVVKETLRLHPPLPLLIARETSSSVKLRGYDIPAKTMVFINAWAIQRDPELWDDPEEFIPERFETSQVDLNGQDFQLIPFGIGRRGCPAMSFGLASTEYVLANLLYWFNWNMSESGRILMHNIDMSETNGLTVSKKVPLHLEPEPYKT
# T1 sequence (P16603 1-691 partner): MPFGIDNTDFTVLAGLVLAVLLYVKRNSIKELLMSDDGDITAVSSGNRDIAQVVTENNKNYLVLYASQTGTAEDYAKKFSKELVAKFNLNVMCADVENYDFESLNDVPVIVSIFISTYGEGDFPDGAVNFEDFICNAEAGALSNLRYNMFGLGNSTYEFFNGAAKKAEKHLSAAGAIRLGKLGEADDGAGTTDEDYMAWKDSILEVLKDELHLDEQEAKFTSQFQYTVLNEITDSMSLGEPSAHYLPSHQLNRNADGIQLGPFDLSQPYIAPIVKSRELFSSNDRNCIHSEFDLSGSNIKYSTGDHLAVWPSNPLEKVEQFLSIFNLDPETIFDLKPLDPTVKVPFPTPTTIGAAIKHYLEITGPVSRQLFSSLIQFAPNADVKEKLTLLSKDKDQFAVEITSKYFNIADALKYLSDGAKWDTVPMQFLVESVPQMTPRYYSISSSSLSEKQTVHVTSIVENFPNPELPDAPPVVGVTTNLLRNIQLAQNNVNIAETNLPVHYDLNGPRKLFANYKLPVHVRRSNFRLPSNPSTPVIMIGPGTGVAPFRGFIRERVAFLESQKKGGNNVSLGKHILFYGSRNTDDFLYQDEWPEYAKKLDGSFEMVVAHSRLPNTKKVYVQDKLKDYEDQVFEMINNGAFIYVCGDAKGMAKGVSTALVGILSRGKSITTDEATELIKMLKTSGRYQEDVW
# Procedure: Yeast transformation was performed as described by Geitz et al., Nucleic Acids Research 20:1425 (1992). Media composition, culturing conditions, galactose induction, and microsomal preparations were conducted according to Pompon et al., Methods Enzymol. 272:51-64 (1995), using a culture volume of 250 ml. Microsomal protein was quantified spectrophotometrically using the method of Waddell, J. Lab. Clin. Med. 48:311-314 (1956), using bovine albumin as a standard. Dithionite-reduced, carbon monoxide difference spectra was obtained as previously outlined (Estabrook and Werringloer, Methods Ennzmol. 52:212-220 (1978)) using a Shimadzu Recording Spectrophotometer UV-240 (Shimadzu, Kyoto, Japan). P-450 protein concentrations of yeast microsomes were calculated using a millimolar extinction coefficient of 91 (Omura and Sato, J. Biol. Chem., 239:2370-2378 (1964)).
# Yeast microsomes enriched for a discrete soybean P-450 isozyme were assayed for their capacity to metabolize the ten herbicides and one insecticide listed in Table 3. The reaction mixtures contained 10,000 DPM (100-200 ng) radiolabeled substrate, 0.75 mM NAPDH, 2.5 mg/ml microsomal protein. Total reaction volumes were adjusted to 150 μl with 50 mM phosphate buffer (pH 7.1). The mixtures were incubated under light for 45 minutes at 27° C., arrested with 50 μl acetone and centriftiged at 14 000×g for 2 minutes. […] Radiolabeled bentazon and imazaquin-containing samples were spotted onto 200 micron Whatman LKC18F silica gel reversed-phase plates. All plates were developed in a benzene/acetone 2:1 (v/v) solvent system with the exception of prosulfaron, developed in toluene/acetone/acetic acid, 75:20:5 (v/v/v), and bentazon and imazaquin, developed in methanol/75 mM sodium acetate 40:60 (v/v). The developed plates were scanned with a Bioscan System 400 imaging scanner (Bioscan, Washington, D.C.), and the production of metabolites was determined based on the chromatographic profiles. For microsomes containing the expressed CYP71A10 enzyme, control experiments were also conducted to measure the NADPH-dependency, and the inhibitory effects of CO. CO treatment of the sample was achieved by gentle bubbling of the gas through the reaction mixture for 2 minutes immediately before the assay was initiated by the addition of NADPH.
# Substrate conversion was quantified by a combination of TLC analysis and scintillation spectrometry. The location of the metabolic products on the TLC plates was identified using an imaging scanner, the bands were scraped and analyzed by scintillation spectrometry. The amount of metabolite produced was calculated based on specific activity and scintillation counts. Each assay was repeated at least twice. Km and Vmax values were estimated using nonlinear regression analysis.
# [1] = system: CYP71A10-transformed tobacco; assay: Herbicide tolerance, seeds germinated on herbicide medium, CYP71A10-transformed tobacco; assay type: in vivo, Nicotiana tabacum cv SR1; settings: for tolerance of line 25/2 to the herbicide: compared with control plants, data not shown
# Procedure: (§1) T1 generation seeds from CYP71A10-transformed tobacco and pBI121-transformed control plants were placed onto Petri dishes containing MS salts and linuron (using its commercial formulation LOROX 50 DF) at active ingredient concentrations ranging from 0.25 to 3.0 μM. Chlortoluron was added at 0, 1.0, 5.0 and 10.0 μM concentrations using a 99.5% pure analytical standard. The Petri dishes were incubated in a growth chamber maintaining a constant temperature of 27° C. and a 16/8 hour light/dark cycle. The phytotoxic effects of the treatments were determined visually by comparison to control plants and plants grown in the absence of the herbicide. All treatments were repeated at least twice.
# [2] = system: excised leaves of transgenic tobacco plant 25/2 progeny (CYP71A10-transformed); assay: In vivo herbicide metabolism assay, excised leaves of CYP71A10-transformed tobacco; set-up: species or system Nicotiana tabacum cv SR1; settings: for % of herbicide metabolized, CYP71A10-transformed: after 14 hours, 1.2 nmol herbicide, standard error in parentheses, four 25/2 plants; for share of the chlortoluron metabolites recovered from CYP71A10-transformed leaves: 14 hours, TLC
# Procedure: (§2) Seeds from primary transgenic tobacco plants transformed with CYP71A10 and control plants transformed with the pBI121 vector were grown in Petri dishes containing MS salts and 100 μg/ml kanamycin. At five weeks post-seeding, kanamycin-resistant plantlets were transplanted into pots containing soil and grown an additional two weeks. Single leaves of approximately 10 cm^2 in size were excised and their petioles inserted into 100 μl of H2 O containing radiolabeled herbicide. The leaves were placed in a growth chamber maintaining a temperature of 27° C. and incubated until the entire volume of the herbicide solution was drawn up by the transpirational stream of the leaves (about 3 hrs). The leaves were subsequently transferred into an Eppendorf tube containing distilled water and further incubated for a total of 14 hours.
# (§3) [^14 C]-labeled herbicide was extracted from the leaves by grinding for 5 minutes in 250 μl methanol with a plastic pellet pestle driven by an electric drill. After centrifugation for 3 minutes at 14,000 g, 75μl of the supernatant was spotted on a Whatman K6F silica plate and developed in a solvent system containing chloroforn/ethanol/acetic acid 135:10:15 (v/v/v). The separated herbicide derivatives were visualized using an imaging scanner. Substrate conversion was quantified based on the amount of herbicide absorbed, and the ratios of the parent compound and the produced metabolites determined from the TLC profiles.
# [3] = system: excised leaves of control tobacco plants transformed with pBI121; assay: In vivo herbicide metabolism assay, excised leaves of control tobacco; set-up: species or system Nicotiana tabacum cv SR1; settings: for % of herbicide metabolized, Control: after 14 hours, 1.2 nmol herbicide, standard error in parentheses, three pBI121 control plants; for share of the chlortoluron metabolites produced in control leaves: 14 hours, TLC
# Procedure: as §2, §3
# [4] = system: wild-type SR1 plants and pBI121-transformed control tobacco plants; assay: Herbicide tolerance, seeds germinated on herbicide medium, control tobacco; assay type: in vivo, Nicotiana tabacum cv SR1; settings: data not shown
# Procedure: as §1
# Hill-reaction = settings: cited from earlier work
# [5] = substrate: CN(C)C(=O)Nc1ccc(Cl)c(Cl)c1; assay: cells, lysate or membranes named; settings: other: yeast microsomes containing CYP71A10; standard error in parentheses; nonlinear regression; pH 7.1; 27.0 °C
# [6] = substrate: CON(C)C(=O)Nc1ccc(Cl)c(Cl)c1; assay: In vitro herbicide metabolism assay and enzyme kinetics, microsomes of yeast expressing CYP71A10; assay type: biochemical, soybean (Glycine max); settings: other: yeast microsomes containing CYP71A10; standard error in parentheses; nonlinear regression; pH 7.1; 27.0 °C
# [7] = substrate: Cc1ccc(NC(=O)N(C)C)cc1Cl; assay: as above; assay type: biochemical, soybean (Glycine max); settings: other: yeast microsomes containing CYP71A10; standard error in parentheses; nonlinear regression; pH 7.1; 27.0 °C
# [8] = substrate: CN(C)C(=O)Nc1cccc(C(F)(F)F)c1; assay: as above; assay type: biochemical, soybean (Glycine max); settings: other: yeast microsomes containing CYP71A10; standard error in parentheses; nonlinear regression; pH 7.1; 27.0 °C
# [9] = yeast microsomes containing CYP71A10, standard error in parentheses
molecule,measurement,setting,value
"[C-]#[O+] [CO, carbon monoxide]",reduction of linuron metabolizing activity,"soybean CYP71A10; linuron as substrate (3.2 μM), CO bubbled through reaction mixture for 2 minutes",approximately 37%
"CN(C)C(=O)Nc1ccc(Cl)c(Cl)c1 [Diuron, diuron]",tolerance of line 25/2 to the herbicide,[1],little tolerance
same,"% of herbicide metabolized, CYP71A10-transformed",[2],49 (7.0) %
same,"% of herbicide metabolized, Control",[3],20 (2.0) %
same,metabolites formed from the radiolabeled herbicide (TLC),soybean CYP71A10,a single metabolite
same,Turnover,soybean CYP71A10; [9],0.4 (0.04) min^-1
same,Vmax,soybean CYP71A10; [9],16.8 (1.6) pmol min^-1 mg^-1 protein
"CN(C)C(=O)Nc1cccc(C(F)(F)F)c1 [Fluometuron, fluometuron]",tolerance of line 25/2 to the herbicide,[1],little tolerance
same,"% of herbicide metabolized, CYP71A10-transformed",[2],91 (4.5) %
same,"% of herbicide metabolized, Control",[3],15 (0.6) %
same,metabolites formed from the radiolabeled herbicide (TLC),soybean CYP71A10,a single metabolite
same,Turnover,soybean CYP71A10; [9],6.8 (0.24) min^-1
"CON(C)C(=O)Nc1ccc(Cl)c(Cl)c1 [Linuron, linuron]",germinated seedlings of plant 25/2 inhibited by the herbicide,[1]; 0.5 μM linuron in medium,one of 23
same,number of 20 other independent CYP71A10-expressing lines giving linuron tolerant progeny,[1]; 0.5 μM linuron in medium,19 lines
same,linuron level to which tolerant 25/2 plants were observed,[1]; increasing percentage of plants inhibited with rising concentration,≤ 2.5 µM
same,growth of wild-type SR1 and pBI121 control plants,[4]; 0.25 μM linuron (LOROX 50 DF) in medium,severely inhibited
same,growth of wild-type SR1 and pBI121 control plants,[4]; linuron 0.5 μM and higher in medium,completely arrested
same,"% of herbicide metabolized, CYP71A10-transformed",[2],87 (2.0) %
same,inhibition of the Hill-reaction relative to N-demethyl linuron,Hill-reaction,10 fold
same,"% of herbicide metabolized, Control",[3],12 (2.6) %
same,metabolites formed from the radiolabeled herbicide (TLC),soybean CYP71A10,two (a major and a minor) metabolites
same,linuron metabolizing activity with microsomes of yeast expressing only the V60 control plasmid,"soybean CYP71A10; V-60 control microsomes, no CYP71A10",no activity is detected
same,linuron metabolites when NADPH is omitted from the reaction,soybean CYP71A10; no NADPH,no metabolites are observed
same,Turnover,soybean CYP71A10; [9],2.8 (0.27) min^-1
CNC(=O)Nc1ccc(C)c(Cl)c1 [N-demethyl chlortoluron],share of the chlortoluron metabolites recovered from CYP71A10-transformed leaves,[2],8%
same,share of the chlortoluron metabolites produced in control leaves,[3],Sixty three
same,share of the chlortoluron metabolites produced in control leaves,[3]; listed as Ndemethyl chlortoluron,63%
CN(C)C(=O)Nc1ccc(CO)c(Cl)c1 [ring-methyl hydroxy chlortoluron],share of the chlortoluron metabolites recovered from CYP71A10-transformed leaves,[2],47%
Clc1ccc(N2N=NC3C4CC(C5N=NC45)C32)cc1 (centres unmarked) [tetcyclasis],effect on linuron metabolizing activity,soybean CYP71A10,completely abolished
"soybean CYP71A10 (Glycine max) (protein, microsomes of yeast W(R) overexpressing endogenous P450 reductase) MALLSSVLKQLPHELSSTHYLTVFFCIFLILLQLIRRNKYNLPPSPPKIPIIGNLHQLGTLPHRSFHALSHKYGPLMMLQLGQIPTLVVSSADVAREIIKTHDVVFSNRRQPTAAKIFGYGCKDVAFVYYREEWRQKIKTCKVELMSLKKVRLFHSIRQEVVTELVEAIGEACGSERPCVNLTEMLMAASNDIVSRCVLGRKCDDACGGSGSSSFAALGRKIMRLLSAFSVGDFFPSLGWVDYLTGLIPEMKTTFLAVDAFLDEVIAEHESSNKKNDDFLGILLQLQECGRLDFQLDRDNLKAILVDMIIGGSDTTSTTLEWTFAEFLRNPNTMKKAQEEVRRVVGINSKAVLDENCVNQMNYLKCVVKETLRLHPPLPLLIARETSSSVKLRGYDIPAKTMVFINAWAIQRDPELWDDPEEFIPERFETSQVDLNGQDFQLIPFGIGRRGCPAMSFGLASTEYVLANLLYWFNWNMSESGRILMHNIDMSETNGLTVSKKVPLHLEPEPYKT",Km,[5],1.5 µM
same,Km,[6],9.8 µM
same,Vmax,[6],125.6 (12.0) pmol min^-1 mg^-1 protein
same,Km,[7],1 µM
same,Vmax,[7],29.4 (2.2) pmol min^-1 mg^-1 protein
same,Km,[8],14.9 µM
